Measured values from ChEMBL document CHEMBL5137049, “Discovery of a Novel Small-Molecule Inhibitor Disrupting TRBP-Dicer Interaction against Hepatocellular Carcinoma via the Modulation of microRNA Biogenesis” (J Med Chem, 2022).
Calls of active or inactive are those of the source. The rule behind the calls is not given here.

Legend:
HepG2 [1] = assay: Downregulation of miR-122 expression in human HepG2 cells at 10 uM incubated for 6 hrs by qRT-PCR analysis; format: functional
MHCC97-L [2] = assay: Downregulation of miR-135 expression in human MHCC97-L cells at 10 uM by qRT-PCR analysis; format: functional, cell-based
[3] = Acute toxicity in KM mouse assessed as effect on liver at 100 mg/kg, ip administered for 7 consecutive days by hematoxyin-eosin staining based analysis; format: organism-based; conditions: in vivo, 168 h, time 7 day
SK-HEP1 [4] = assay: Downregulation of N-cadherin expression level in TRBP siRNA transfected human SK-HEP1 cells incubated for 48 hrs by Western blotting analysis; format: functional, cell-based
HeLa [5] = assay: Upregulation of pri-miR-21 in human HeLa cells at 10 uM incubated for 6 hrs by qRT-PCR analysis; format: functional, cell-based
HCCLM3 [6] = assay: Inhibition of cell migration in human HCLLM3 cells at 1 to 25 uM measured after 24 hrs by crystal violet staining based transwell assay; format: functional; conditions: dose 1-25 µM
SK-HEP1 [7] = assay: Downregulation of fibronectin expression in human SK-HEP1 cells at 1 to 25 uM by Western blot analysis; format: functional, cell-based; conditions: dose 1-25 µM
HeLa [8] = assay: Downregulation of miR-155 expression in human HeLa cells at 10 uM incubated for 6 hrs by qRT-PCR analysis; format: functional
Homo sapiens = species on record: Homo sapiens; assay: Effect on ADAR1-Dicer interaction (unknown origin) assessed as increase in binding of ADAR1 to Dicer at 1 to 25 uM by Western blotting analysis; conditions: dose 1-25 µM
[9] = Inhibition of microRNA in human HeLa cells transfected with pCI-neo-luciferase-miR-21 plasmid assessed as change in luciferase signal incubated for 24 hrs by luciferase reporter assay; format: cell-based
Mus musculus [10] = assay: Downregulation of vimentin expression in liver of SCID mouse xenografted with human SK-HEP1 cells at 10 to 50 mg/kg, ip administered every 2 days for 4 weeks by immunohistochemical staining analysis; format: functional, organism-based; conditions: dose 10-50 mg/kg
[11] = Acute toxicity in KM mouse assessed as effect on kidney at 100 mg/kg, ip administered for 7 consecutive days by hematoxyin-eosin staining based analysis; format: organism-based; conditions: in vivo, 168 h, time 7 day
HepG2 [12] = assay: Downregulation of miR-221 expression in human HepG2 cells at 10 uM incubated for 6 hrs by qRT-PCR analysis; format: functional
SK-HEP1 [13] = assay: Upregulation of PTEN protein expression in human SK-HEP1 cells incubated for 24 hrs by Western blotting analysis; format: functional, cell-based; conditions: dose 1-50 µM, DDE = dose-dependent effect
HepG2 [14] = assay: Upregulation of pre-miR-221 in human HepG2 cells at 10 uM incubated for 6 hrs by qRT-PCR analysis; format: functional, cell-based
SK-HEP1 [15] = assay: Downregulation of ZEB2 expression in human SK-HEP1 cells at 1 to 25 uM by Western blotting analysis; format: functional, cell-based; conditions: dose 1-25 µM
[16] = Acute toxicity in KM mouse assessed as effect on heart at 100 mg/kg, ip administered for 7 consecutive days by hematoxyin-eosin staining based analysis; format: organism-based; conditions: in vivo, 168 h, time 7 day
SK-HEP1 [17] = assay: Downregulation of miR-135 expression in human SK-HEP1 cells at 10 uM by qRT-PCR analysis; format: functional, cell-based
HepG2 [18] = assay: Upregulation of pre-miR-21 in human HepG2 cells at 10 uM incubated for 6 hrs by qRT-PCR analysis; format: functional, cell-based
HeLa [19] = assay: Upregulation of pri-miR-214 in human HeLa cells at 10 uM incubated for 6 hrs by qRT-PCR analysis; format: functional, cell-based
SK-HEP1 [20] = assay: Upregulation of TIMP4 expression in human SK-HEP1 cells at 1 to 25 uM by Western blotting analysis; format: functional, cell-based; conditions: dose 1-25 µM
MHCC97-L [21] = assay: Inhibition of cell migration in human MHCC97-L cells at 1 to 25 uM measured after 24 hrs by crystal violet staining based transwell assay; format: functional; conditions: dose 1-25 µM
HCCLM3 [22] = assay: Downregulation of miR-18a expression in human HCCLM3 cells at 10 uM by qRT-PCR analysis; format: functional, cell-based
SK-HEP1 [23] = assay: Antitumor activity against human SK-HEP1 cells xenografted in SCID mouse assessed as reduction in number of intrahepatic migration lesions at 10 to 25 mg/kg, ip administered every 2 days for 4 weeks by hematoxyin-eosin staining based analysis; format: functional, organism-based; conditions: dose 10-25 mg/kg
Mus musculus [24] = assay: Upregulation of E-cadherin expression in liver of SCID mouse xenografted with human SK-HEP1 cells at 10 to 50 mg/kg, ip administered every 2 days for 4 weeks by immunohistochemical staining analysis; format: functional, organism-based; conditions: dose 10-50 mg/kg
HeLa [25] = assay: Upregulation of pre-miR-21 in human HeLa cells at 10 uM incubated for 6 hrs by qRT-PCR analysis; format: functional, cell-based
SK-HEP1 [26] = assay: Upregulation of miR-125 expression in human SK-HEP1 cells at 10 uM by qRT-PCR analysis; format: functional, cell-based
[27] = Inhibition of TRBP (unknown origin) - recombinant Dicer (unknown origin) protein-protein interaction incubated for 3 hrs by GST pull-down assay; parameters: species or system Homo sapiens
HepG2 [28] = assay: Upregulation of pri-miR-221 in human HepG2 cells at 10 uM incubated for 6 hrs by qRT-PCR analysis; format: functional, cell-based
MHCC97-L [29] = assay: Inhibition of cell migration in human MHCC97-L cells assessed as reduction of cell mobility at 1 to 25 uM measured at 24 hrs by well scratch method; format: functional, cell-based; conditions: dose 1-25 µM
MHCC97-L [30] = assay: Upregulation of miR-125 expression in human MHCC97-L cells at 10 uM by qRT-PCR analysis; format: functional, cell-based
HepG2 [31] = assay: Upregulation of pri-miR-21 in human HepG2 cells at 10 uM incubated for 6 hrs by qRT-PCR analysis; format: functional, cell-based
HCCLM3 [32] = assay: Inhibition of cell migration in human HCCLM3 cells assessed as reduction of cell mobility at 1 to 25 uM measured at 24 hrs by well scratch method; format: functional, cell-based; conditions: dose 1-25 µM
SK-HEP1 [33] = assay: Upregulation of PDCD4 protein expression in human SK-HEP1 cells incubated for 24 hrs by Western blotting analysis; format: functional, cell-based; conditions: dose 1-50 µM, DDE = dose-dependent effect
HeLa [34] = assay: Inhibition of microRNA in human HeLa cells transfected with pCI-neo-luciferase-miR-21 plasmid assessed as change in luciferase signal by measuring relative luciferase unit by luciferase reporter assay; format: cell-based
SK-HEP1 [35] = assay: Inhibition of cell migration in human SK-HEP1 cells assessed as reduction of cell mobility at 1 to 25 uM measured at 24 hrs by well scratch method; format: functional, cell-based; conditions: dose 1-25 µM
HepG2 [36] = assay: Upregulation of pri-miR-122 in human HepG2 cells at 10 uM incubated for 6 hrs by qRT-PCR analysis; format: functional, cell-based
[37] = Toxicity in SCID mouse xenografted with human MHCC97-L cells assessed as effect on liver at 10 to 50 mg/kg, ip administered every 2 days for 4 weeks by hematoxyin-eosin staining based analysis; format: organism-based; conditions: in vivo, 672 h, dose 10-50 mg/kg
[38] = Toxicity in SCID mouse xenografted with human MHCC97-L cells assessed as effect on heart at 10 to 50 mg/kg, ip administered every 2 days for 4 weeks by hematoxyin-eosin staining based analysis; format: organism-based; conditions: in vivo, 672 h, dose 10-50 mg/kg
[39] = Toxicity in SCID mouse xenografted with human MHCC97-L cells assessed as effect on lung at 10 to 50 mg/kg, ip administered every 2 days for 4 weeks by hematoxyin-eosin staining based analysis; format: organism-based; conditions: in vivo, 672 h, dose 10-50 mg/kg

For CCOC(=O)c1nc(-c2ccc(OC)cc2)oc1C, the Activity (HepG2 [1]) was 60%, the Activity (MHCC97-L [2]) was “Active” and the Activity [3] was “Non-Toxic”. The Activity (SK-HEP1 [4]) was “Active”, the Activity (HeLa [5]) was “Active” and the inhibition (HCCLM3 [6]) was “Active”. For the same molecule, the Activity (SK-HEP1 [7]) was “Active”, the Activity (HeLa [8]) was 60% and the Activity (Homo sapiens) was “Active”. For the same molecule, the EC50 [9] was 1.38 µM, the Activity (Mus musculus [10]) was “Active” and the Activity [11] was “Non-Toxic”. For the same molecule, the Activity (HepG2 [12]) was 60%, the Activity (SK-HEP1 [13]) was “Dde” and the Activity (HepG2 [14]) was “Active”. The Activity (SK-HEP1 [15]) was “Active”, the Activity [16] was “Non-Toxic” and the Activity (SK-HEP1 [17]) was “Active”. For the same molecule, the Activity (HepG2 [18]) was “Active”, the Activity (HeLa [19]) was “Active” and the Activity (SK-HEP1 [20]) was “Active”. For the same molecule, the inhibition (MHCC97-L [21]) was “Active”, the Activity (HCCLM3 [22]) was “Active” and the Activity (SK-HEP1 [23]) was “Active”. For the same molecule, the Activity (Mus musculus [24]) was “Active”, the Activity (HeLa [25]) was “Active” and the Activity (SK-HEP1 [26]) was “Active”. The IC50 [27] was 12.3 µM, the Activity (HepG2 [28]) was “Active” and the inhibition (MHCC97-L [29]) was “Active”. The Activity (MHCC97-L [30]) was “Active”, the Activity (HepG2 [31]) was “Active” and the inhibition (HCCLM3 [32]) was “Active”. For the same molecule, the Activity (SK-HEP1 [33]) was “Dde”, the RLU (HeLa [34]) was 5.68 and the inhibition (SK-HEP1 [35]) was “Active”. The Activity (HepG2 [36]) was “Active”, the Activity [37] was “Non-Toxic” and the Activity [38] was “Non-Toxic”. The Activity [39] was “Non-Toxic”.
